Experiments:
[1] = Photocatalytic singlet oxygen generation (ABDA probe); type: physicochemical; conditions: H2O:DMSO (1:1), blue light 460 nm, rose bengal as reference
Text: Singlet oxygen is thought to be the main cytotoxic species in type II PDT processes. Therefore, we determined the ability of Ir-Me and Ru-Me to generate ^1O2 under photocatalytic conditions, as illustrative examples of our PSs. As shown in Figures 6 and S51, we monitored by means of UV–vis spectroscopy the oxidation of 9,10-anthracenediyl bis(methylene)dimalonic acid (ABDA, 8x 10^–5 M) in the presence of atmospheric oxygen, using Ir-Me (10^–5 M) as the PS and H2O:DMSO (1:1) as the solvent system under blue light exposure (λir = 460 nm). […] Moreover, the singlet oxygen quantum yield values (ΦΔ) of Ir-Me and Ru-Me were determined using rose bengal (ΦΔ = 0.75) as the reference. […]
an integrating sphere. For the determination of the luminescence lifetime, the fluorescence decay was measured on a FLS980 spectrofluorometer equipped with a TSCPC laser (Ir(III) complexes: λ ex = 405 nm; Ru(II) complexes: λ ex = 450 nm) and a REDPMT detector. The F980 spectrometer operating software was used to collect and process luminescence lifetime data.
Photostability of Ir(III) and Ru(II) complexes. The photostability of Ir(III) or Ru(II) complexes was monitored by 1H RMN. […]
Singlet oxygen generation. The capacity of Ir-Me and Ru-Me to generate singlet oxygen ( 1O2) was determined by an indirect method using 9,10-anthracenediyl-bis(methylene) dimalonic acid (ABDA) as a probe. […]

PC-3 cells = assay: Intracellular ROS generation (H2DCFDA, flow cytometry); type: cell-based, human; conditions: IC50,light 4 h, blue light 1 h
Procedure: The photocytotoxic effects of the complexes and metallopeptides were further elucidated by evaluating their ability to photogenerate ROS at the cellular level. PC-3 cells were treated with the compounds at the respective IC50,light and irradiated with blue light. Subsequently, ROS generation was measured using the 2′,7′-dichlorodihydrofluorescein diacetate (H2DCFDA) probe, which diffuses into cells and is oxidized by ROS to produce a green fluorescent signal. […] Nevertheless, to ascertain the potential contributions of other ROS to the photocytotoxic activity, the capacity of the compounds to undergo type I PDT processes, resulting in the production of superoxide anions (O2^•–), was examined using a specific fluorescent probe that emits an orange signal upon interaction with this radical. […]
Figure 9 Intracellular ROS generation. […] The elevation of general ROS (A) and superoxide anion (B) levels was determined with specific probes by flow cytometry. […]
PC-3 cells were seeded at a density of 100000 cells per well in 12-well plates and incubated overnight. […] Cells were subsequently harvested by trypsinization, and the median fluorescence emission of 10000 cells was measured using a Novocyte flow cytometer equipped with NovoExpress software. The fluorescence fold increase relative to untreated control cells was calculated. […]

[2] = Self-aggregation study (Lambert-Beer law, UV-vis); type: physicochemical; conditions: H2O:DMSO (99:1), 1 to 40 μM, absorbance at 417 nm
Procedure: The possible aggregation properties (self-assembly behavior) were investigated for the lipophilic derivative Ir-Me through the respective analysis of the Lambert–Beer law using UV–vis spectroscopy in H2O:DMSO (99:1). More specifically, the absorbance of Ir-Me at λ = 417 nm was plotted versus concentration in the range between 1 and 40 μM. An excellent linear fitting was obtained confirming that there is no significant deviation from the Lambert–Beer law (Figures S57 and S58).

singlet oxygen quantum yield (ΦΔ) [1]: 4%
self-aggregation [2]: does not form aggregates
Structure (SMILES): COC(=O)/C=C/c1ccc(-c2nccc3c4ccccc4n(C)c23)nc1.[Cl-].[Ir+3].[c-]1ccccc1-c1ccccn1.[c-]1ccccc1-c1ccccn1 [Ir-Me]
ROS levels, fold increase versus control cells (PC-3 cells): 4.5 fold

From article PMC11483813, “Bombesin-Targeted Delivery of β-Carboline-Based Ir(III) and Ru(II) Photosensitizers for a Selective Photodynamic Therapy of Prostate Cancer” (Inorganic Chemistry, 2024)
